Activity calls are given as the source filed them. The rule behind the calls is not given here. Where a SMILES comes first, the peptide text is derived from it. Bridges are numbered along the chain shown (N, C = ends). [ ]: non-standard residue; d: D form. His(π-(CH2)8Ph) = N[C@@H](Cc1cncn1CCCCCCCCc1ccccc1)C(=O)O; pT = C[C@@H](OP(=O)(O)O)[C@H](N)C(=O)O; Ahx = NCCCCCC(=O)O
Tests used:
A549 [1] = test: Induction of apoptosis in human A549 cells at 25 uM incubated for 24 hrs by fluorescence microscopic analysis; type: functional, cell-based
UBR/PLK1 (Homo sapiens) [2] = test: Protac activity at UBR/PLK1 in human NCI-H1975 cells assessed as PLK1 degradation at 30 uM incubated for 24 hrs by immunoblotting analysis
[3] = In vivo induction of PLK1 degradation in nude mouse xenografted with human NCI-H1975 cells assessed as reduction in PLK1 protein expression at 10 mg/kg, iv administered for every 3 days in presence of 5 mg/kg osimertinib by Western blotting analysis; type: functional; set-up: scale not given: the % may be the effect or the level left
UBR/PLK1 (Homo sapiens) [4] = test: Protac activity at UBR/PLK1 in human A549 cells assessed as PLK1 degradation incubated for 24 hrs by immunoblotting analysis; conditions: dose 5-25 µM
[5] = as above
HeLa [6] = test: Induction of cell cycle arrest in human HeLa cells assessed as G2/M phase arrest at 10 uM incubated for 24 hrs by PI staining based flow cytometry analysis; type: functional
PC-9 [7] = test: Cytotoxicity against human PC-9 cells assessed as change in morphology at 25 uM incubated for 24 hrs by phase contrast microscopic assay; type: functional, cell-based
UBR/PLK1 (Homo sapiens) [8] = test: Protac activity at UBR/PLK1 in human PC-9 cells assessed as PLK1 degradation incubated for 24 hrs by immunoblotting analysis; conditions: dose 5-25 µM
[9] = as above
UBR/PLK1 (Homo sapiens) [10] = test: Protac activity at UBR/PLK1 in human PC-9 cells assessed as PLK1 degradation at 5 to 30 uM preincubated for 24 hrs followed by MG132 addition for 8 hrs by immunoblotting analysis; conditions: dose 5-30 µM, time 32.0 hrs
NCI-H1975 [11] = test: Induction of apoptosis in human NCI-H1975 cells at 25 uM incubated for 24 hrs by fluorescence microscopic analysis; type: functional, cell-based
NCI-H1975 [12] = test: Cytotoxicity against human NCI-H1975 cells assessed as change in morphology at 25 uM incubated for 24 hrs by phase contrast microscopic assay; type: functional, cell-based
HeLa [13] = test: Induction of cell cycle arrest in human HeLa cells assessed as fold increase in S phase population at 10 uM incubated for 24 hrs by PI staining based flow cytometry analysis; type: functional
UBR/PLK1 (Homo sapiens) [14] = test: Protac activity at UBR/PLK1 in human A549 cells assessed as PLK1 degradation at 25 uM incubated for 2 to 24 hrs by immunoblotting analysis; conditions: time 2-24 hrs
[15] = In vivo induction of PLK1 degradation in nude mouse xenografted with human NCI-H1975 cells assessed as reduction in PLK1 protein expression at 10 mg/kg, iv administered for every 3 days by Western blotting analysis; type: functional; set-up: scale not given: the % may be the effect or the level left
PC-9 [16] = test: Induction of cell cycle arrest in human PC-9 cells assessed as delay in S phase progression at 10 uM incubated for 24 hrs by PI staining based flow cytometry analysis; type: functional
UBR/PLK1 (Homo sapiens) [17] = test: Protac activity at UBR/PLK1 in human NCI-H1975 cells assessed as PLK1 degradation at 5 to 30 uM preincubated for 24 hrs followed by MG132 addition for 8 hrs by immunoblotting analysis; conditions: dose 5-30 µM, time 32.0 hrs
A549 [18] = test: Induction of cell cycle arrest in human A549 cells assessed as delay in S phase progression at 10 uM incubated for 24 hrs by PI staining based flow cytometry analysis; type: functional
[19] = Toxicity in nude mouse xenografted with human NCI-H1975 cells assessed as change in body weight at 10 mg/kg, iv administered for every 3 days; type: organism-based; conditions: in vivo, 72 h
UBR/PLK1 (Homo sapiens) [20] = test: Protac activity at UBR/PLK1 in human HeLa cells assessed as PLK1 degradation at 0.3 to 3 uM preincubated for 24 hrs followed by MG132 addition for 8 hrs by immunoblotting analysis; conditions: dose 0.3-3 µM
UBR/PLK1 (Homo sapiens) [21] = test: Protac activity at UBR/PLK1 in human HeLa cells assessed as PLK1 degradation at 4 uM preincubated for 24 hrs followed by compound washout and measured after 24 to 48 hrs by immunoblotting analysis
[22] = target: E3 ubiquitin-protein ligase UBR1 (Homo sapiens) (UniProt Q8IWV7); test: Binding affinity to UBR1 (unknown origin) expressed in HEK293T cells incubated for 3 hrs by pull-down assay; type: cell-based
HeLa [23] = test: Cytotoxicity against human HeLa cells assessed as change in morphology at 18 uM incubated for 24 hrs by phase contrast microscopic assay; type: functional, cell-based

E3 ubiquitin-protein ligase UBR1 (Homo sapiens), sequence (Q8IWV7 whole entry): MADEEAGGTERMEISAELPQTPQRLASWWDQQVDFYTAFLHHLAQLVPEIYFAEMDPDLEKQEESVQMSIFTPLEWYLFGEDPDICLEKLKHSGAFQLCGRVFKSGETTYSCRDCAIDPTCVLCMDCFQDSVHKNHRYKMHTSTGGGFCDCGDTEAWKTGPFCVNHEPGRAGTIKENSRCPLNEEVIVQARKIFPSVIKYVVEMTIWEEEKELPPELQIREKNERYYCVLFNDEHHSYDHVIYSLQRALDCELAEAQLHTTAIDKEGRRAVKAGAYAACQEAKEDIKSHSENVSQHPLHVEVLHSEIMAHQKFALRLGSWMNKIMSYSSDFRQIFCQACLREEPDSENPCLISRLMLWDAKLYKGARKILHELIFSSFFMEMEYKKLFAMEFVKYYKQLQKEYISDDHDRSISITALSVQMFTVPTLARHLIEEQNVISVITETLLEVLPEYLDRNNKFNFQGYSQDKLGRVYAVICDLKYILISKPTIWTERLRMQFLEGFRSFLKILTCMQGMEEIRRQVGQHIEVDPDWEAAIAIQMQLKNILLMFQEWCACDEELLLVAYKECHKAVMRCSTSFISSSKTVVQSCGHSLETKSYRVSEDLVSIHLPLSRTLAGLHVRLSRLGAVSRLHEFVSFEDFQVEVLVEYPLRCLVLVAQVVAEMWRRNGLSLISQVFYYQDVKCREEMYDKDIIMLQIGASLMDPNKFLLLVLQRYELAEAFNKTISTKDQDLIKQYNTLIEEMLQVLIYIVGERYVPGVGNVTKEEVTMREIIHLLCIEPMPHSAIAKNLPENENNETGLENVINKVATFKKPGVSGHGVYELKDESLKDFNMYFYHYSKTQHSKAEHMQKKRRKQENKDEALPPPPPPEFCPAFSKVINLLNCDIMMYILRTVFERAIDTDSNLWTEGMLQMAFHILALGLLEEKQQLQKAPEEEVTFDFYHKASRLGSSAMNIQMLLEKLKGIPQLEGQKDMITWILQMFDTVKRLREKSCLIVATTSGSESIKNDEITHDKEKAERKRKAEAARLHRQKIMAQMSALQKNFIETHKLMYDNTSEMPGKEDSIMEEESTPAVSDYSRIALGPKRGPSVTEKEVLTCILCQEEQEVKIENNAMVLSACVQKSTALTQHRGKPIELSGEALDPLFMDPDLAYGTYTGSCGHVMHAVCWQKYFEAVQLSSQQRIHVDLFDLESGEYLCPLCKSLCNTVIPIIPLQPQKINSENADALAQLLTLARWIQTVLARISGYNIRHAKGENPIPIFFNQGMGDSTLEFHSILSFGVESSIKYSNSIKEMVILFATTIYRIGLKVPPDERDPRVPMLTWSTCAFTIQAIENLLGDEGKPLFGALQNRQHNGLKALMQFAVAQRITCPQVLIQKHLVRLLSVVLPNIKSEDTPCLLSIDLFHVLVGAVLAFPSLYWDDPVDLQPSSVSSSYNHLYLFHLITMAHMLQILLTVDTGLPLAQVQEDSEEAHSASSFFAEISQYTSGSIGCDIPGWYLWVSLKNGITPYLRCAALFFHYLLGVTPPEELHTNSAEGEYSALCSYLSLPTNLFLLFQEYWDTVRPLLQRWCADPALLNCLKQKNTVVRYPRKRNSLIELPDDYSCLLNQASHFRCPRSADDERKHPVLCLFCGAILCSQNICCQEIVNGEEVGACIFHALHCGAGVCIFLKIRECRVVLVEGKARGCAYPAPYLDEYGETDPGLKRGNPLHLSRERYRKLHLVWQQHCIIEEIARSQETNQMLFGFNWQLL

Emax (UBR/PLK1 (Homo sapiens) [2]): 95%
Activity (UBR/PLK1 (Homo sapiens) [4]): Dose-Dependent Effect
DC50 [5]: 27 µM
Activity (UBR/PLK1 (Homo sapiens) [8]): Dose-Dependent Effect
DC50 [9]: 12 µM
Activity (UBR/PLK1 (Homo sapiens) [10]): inactive
Activity (UBR/PLK1 (Homo sapiens) [14]): Active
Activity (UBR/PLK1 (Homo sapiens) [17]): inactive
Activity (UBR/PLK1 (Homo sapiens) [20]): inactive
Activity (UBR/PLK1 (Homo sapiens) [21]): Active
Activity [22]: Active
SMILES: C[C@@H](OP(=O)(O)O)[C@@H]1NC(=O)[C@H](Cc2cncn2CCCCCCCCc2ccccc2)NC(=O)[C@@H](NC(=O)CCCCCNC(=O)[C@H](CCCNC(=N)N)NC(=O)[C@H](CCCNC(=N)N)NC(=O)[C@H](CCCNC(=N)N)NC(=O)[C@H](CCCNC(=N)N)NC(=O)[C@H](CCCNC(=N)N)NC(=O)[C@H](CCCNC(=N)N)NC(=O)[C@H](CCCNC(=N)N)NC(=O)[C@H](CCCNC(=N)N)NC(=O)[C@H](CCCNC(=N)N)NC(=O)[C@H](CCCNC(=N)N)NC(=O)[C@H](CCCNC(=N)N)NC(=O)[C@@H](N)CCCNC(=N)N)CCC(=O)NCCCC[C@@H](C(N)=O)NC1=O (H-RRRRRRRRRRRR[Ahx]E[His(π-(CH2)8Ph)][pT]K-NH2; lactam 14-17)
Activity (A549 [1]): Active
Activity [3]: 75%
Activity (HeLa [6]): 21%
Activity (PC-9 [7]): Active
Activity (NCI-H1975 [11]): Active
Activity (NCI-H1975 [12]): Active
Activity (HeLa [13]): Active
Activity [15]: >60%
Activity (PC-9 [16]): Active
Activity (A549 [18]): Active
Activity [19]: Non-Toxic
Activity (HeLa [23]): Active

Reference: ChEMBL document CHEMBL5518167, “Degradation of Polo-like Kinase 1 by the Novel Poly-Arginine N-Degron Pathway PROTAC Regulates Tumor Growth in Nonsmall Cell Lung Cancer” (J Med Chem, 2024)
